Measured values published in article PMC8471537, “Novel Coumarin-Thiadiazole Hybrids and Their Cu(II) and Zn(II) Complexes as Potential Antimicrobial Agents and Acetylcholinesterase Inhibitors” (International Journal of Molecular Sciences, 2021).

Target: Acetylcholinesterase (AChE; E.C. 3.1.1.7) from Electrophorus electricus (Electrophorus electricus, UniProt O42275)
Assay: Ellman assay, absorbance at […] nm
Type: biochemical

Chain of Acetylcholinesterase (AChE; E.C. 3.1.1.7) from Electrophorus electricus (O42275 24-633): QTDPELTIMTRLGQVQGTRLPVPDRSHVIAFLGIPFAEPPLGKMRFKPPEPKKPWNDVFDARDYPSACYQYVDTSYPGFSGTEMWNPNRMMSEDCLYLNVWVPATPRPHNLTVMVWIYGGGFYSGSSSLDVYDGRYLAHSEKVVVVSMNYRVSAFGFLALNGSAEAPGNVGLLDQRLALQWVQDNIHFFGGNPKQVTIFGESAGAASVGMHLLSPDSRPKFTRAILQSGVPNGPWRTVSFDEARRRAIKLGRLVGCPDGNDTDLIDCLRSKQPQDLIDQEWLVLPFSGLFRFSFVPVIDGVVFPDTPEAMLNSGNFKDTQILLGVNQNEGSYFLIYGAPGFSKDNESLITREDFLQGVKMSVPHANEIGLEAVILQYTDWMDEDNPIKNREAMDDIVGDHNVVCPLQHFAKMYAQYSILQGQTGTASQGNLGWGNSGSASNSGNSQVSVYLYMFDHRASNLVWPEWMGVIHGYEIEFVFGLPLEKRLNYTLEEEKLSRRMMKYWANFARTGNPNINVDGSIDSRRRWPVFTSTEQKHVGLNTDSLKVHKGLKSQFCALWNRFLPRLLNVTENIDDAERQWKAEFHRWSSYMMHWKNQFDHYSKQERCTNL

`Cc1cc(=O)oc2c(-c3nnc(N)s3)c(O)ccc12` [compound 2, 2] and `CNc1nnc(-c2c(O)ccc3c(C)cc(=O)oc23)s1` [compound 3, 3] are within error of each other in IC50: 0.218 ± 0.0084 µM for the first, 0.211 ± 0.0123 µM for the second.

Compared with `CC(=O)Nc1nnc(-c2c(O)ccc3c(C)cc(=O)oc23)s1` [compound 4, 4], `Cc1cc(=O)oc2c(-c3nnc(Nc4ccccc4)s3)c(O)ccc12` [compound 5, 5] is 1.7-fold higher in IC50: 0.181 ± 0.0123 µM for the first, 0.299 ± 0.0194 µM for the second. The first is the more potent here.
